Results reported in ChEMBL document CHEMBL1144273, “Synthesis and SAR studies of 3-phenoxypropyl piperidine analogues as ORL1 (NOP) receptor agonists” (Bioorg Med Chem Lett, 2005).

System: Mus musculus
Test: In vivo effective dose against mouse formalin paw after intravenous administration of the compound
Format: functional

`COc1ccc(C)c(OC(CCN2CCC(n3c(=O)[nH]c4ccccc43)CC2)C(C)C)c1` (stereo unspecified) [ORGANON] showed an ED50 of 1.07 µmol/kg.
